Assay results from US10222368B2 (priority 2012, dated 2019).

Target: T1, mu opiate receptor (MOR) (Rattus norvegicus, UniProt P33535)
T1 construct: from tissue; host or cells: striatal tissue (membrane preparation)
Assay: MOR agonist activity using [35S]GTPγS binding assay in striatal membranes
Assay type: biochemical
Details: for MOR agonist activity, [35S]GTPγS binding, FLNA-binding compound as agonist at 0.1 μM: 0.1 μM compound; for MOR agonist activity, [35S]GTPγS binding, FLNA-binding compound as agonist at 0.1 μM / MOR agonist activity, [35S]GTPγS binding, FLNA-binding compound as agonist at 1 μM: Series C-2; for MOR agonist activity, [35S]GTPγS binding, 1 μM + BFNA: 1 μM compound + 1 μM β-FNA (MOR antagonist); for % DAMGO + BFNA: 1 μM compound + BFNA relative to DAMGO + BFNA; for % DAMGO (0.1 μM): 0.1 μM compound relative to DAMGO (0.1 μM)
Method: To assess the mu opiate receptor (MOR) agonist activity of positive compounds from the FLNA screening, compounds were tested in a [^35S]GTPγS binding assay using striatal membranes. […] This assay measures a functional consequence of receptor occupancy at one of the earliest receptor-mediated events. The assay permits for traditional pharmacological parameters of potency, efficacy and antagonist affinity, with the advantage that agonist measures are not subjected to amplification or other modulation that may occur when analyzing parameters further downstream of the receptor.
Thus, striatal tissue was homogenized in 10 volumes of ice cold 25 mM HEPES buffer, pH 7.4, which contained 1 mM EGTA, 100 mM sucrose, 50 μg/ml leupeptin, 0.04 mM PMSF, 2 μg/ml soybean trypsin inhibitor and 0.2% 2-mercaptoethanol. The homogenates were centrifuged at 800×g for 5 minutes and the supernatants were centrifuged at 49,000×g for 20 minutes.
The resultant striatal membrane preparation (200 μg) was admixed and maintained (incubated) at 30° C. for 5 minutes in reaction buffer as above that additionally contained 1 mM MgCl2 and 0.5 nM [^35S]GTPγS (0.1 μCi/assay, PerkinElmer Life and Analytical Sciences) in a total volume of 250 μl and continued for 5 minutes in the absence or presence of 0.1-10 μM of an assayed compound of interest. The reaction was terminated by dilution with 750 μl of ice-cold reaction buffer that contained 20 mM MgCl2 and 1 mM EGTA and immediate centrifugation at 16,000×g for 5 minutes.
Normal rabbit serum (1 μl) was added to 1 ml of lysate and incubated at 25° C. for 30 minutes. Nonspecific immune complexes were removed by incubation with 25 μl of protein A/G-conjugated agarose beads at 25° C. for 30 minutes followed by centrifugation at 5,000×g at 4° C. for 5 minutes. The supernatant was divided and separately incubated at 25° C. for 30 minutes with antibodies raised against Gαo proteins (1:1,000 dilutions).
The immunocomplexes so formed were collected by incubation at 25° C. for 30 minutes with 40 μl of agarose-conjugated protein A/G beads and centrifugation at 5,000×g at 4° C. for 5 minutes. The pellet was washed and suspended in buffer containing 50 mM Tris-HCl, pH 8.0, and 1% NP-40. The radioactivity in the suspension was determined by liquid scintillation spectrometry.

[1] = 1 μM compound, striatal membranes

T1 sequence (P33535 whole entry): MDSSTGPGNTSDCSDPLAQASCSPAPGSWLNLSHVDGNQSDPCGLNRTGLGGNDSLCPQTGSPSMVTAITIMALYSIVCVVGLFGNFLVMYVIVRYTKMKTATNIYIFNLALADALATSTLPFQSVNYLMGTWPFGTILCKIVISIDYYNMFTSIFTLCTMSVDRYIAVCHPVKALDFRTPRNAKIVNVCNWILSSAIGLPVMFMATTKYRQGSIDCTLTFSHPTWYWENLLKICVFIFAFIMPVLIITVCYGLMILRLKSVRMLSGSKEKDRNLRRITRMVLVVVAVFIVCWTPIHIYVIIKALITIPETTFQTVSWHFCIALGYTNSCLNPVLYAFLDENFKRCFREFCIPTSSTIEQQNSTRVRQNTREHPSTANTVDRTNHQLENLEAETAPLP

Structure (SMILES)	MOR agonist activity, [35S]GTPγS binding, FLNA-binding compound as agonist at 0.1 μM (striatal membranes) [%]	MOR agonist activity, [35S]GTPγS binding, 1 μM + BFNA (striatal membranes) [%]	MOR agonist activity, [35S]GTPγS binding, FLNA-binding compound as agonist at 1 μM [1] [%]	other results
O=C1CN(C2CCc3ccccc3C2)C2(CCN(S(=O)(=O)c3ccccc3)CC2)N1 (centres unmarked) [C0136M (P5)]	176.8	74.5	237.3	–
O=C1CN(Cc2ccccc2)C2(CCN(C3CCCCC3)CC2)N1 [C0137M(P7)]	180.8	55.8	193.8	–
COc1c2c(cc3c1C(CC(=O)c1ccc(F)c(F)c1)[N+](C)(C)CC3)OCO2 (centres unmarked) [Compound B0003]	–	–	–	% DAMGO + BFNA (Series B): 29.0%
COc1cccc(CC(=O)CC2c3c(cc4c(c3OC)OCO4)CC[N+]2(C)C)c1OC.[I-] (centres unmarked) [Compound B0038]	–	–	–	MOR agonist activity, [35S]GTPγS binding, at 1 μM compound (Series B, 1 μM compound, [35S]GTPγS binding to Gαo, striatal membranes): 205.3%
COc1cccc(S(=O)(=O)N2CCC3(CC2)OCCN3S(=O)(=O)c2cccc(OC)c2)c1 [Compound C0002]	–	–	–	% DAMGO + BFNA (Series C-1): 6.1%
O=S(=O)(c1ccc(OC(F)(F)F)cc1)N1CCC2(CC1)OCCN2S(=O)(=O)c1ccc(OC(F)(F)F)cc1 [Compound C0006]	–	–	–	% DAMGO + BFNA (Series C-1): 7.2%
CC(C)c1ccc(S(=O)(=O)N2CCC3(CC2)OCCN3S(=O)(=O)c2ccc(C(C)C)cc2)cc1 [Compound C0007]	–	–	–	% DAMGO (0.1 μM) (Series C-1): 46.0%; % DAMGO + BFNA (Series C-1): 17.0%
N#Cc1ccc(S(=O)(=O)N2CCC3(CC2)OCCN3S(=O)(=O)c2ccc(C#N)cc2)cc1 [Compound C0008]	–	–	–	% DAMGO + BFNA (Series C-1): 4.4%
CC(=O)c1ccc(S(=O)(=O)N2CCC3(CC2)OCCN3S(=O)(=O)c2ccc(C(C)=O)cc2)cc1 [Compound C0011]	217.0	19.0	305.0	–
CC(=O)Nc1ccc(S(=O)(=O)N2CCC3(CC2)OCCN3S(=O)(=O)c2ccc(NC(C)=O)cc2)cc1 [Compound C0013]	–	–	–	% DAMGO (0.1 μM) (Series C-1): 91.0%
Cc1cccc(S(=O)(=O)N2CCC3(CC2)OCCN3S(=O)(=O)c2cccc(C)c2)c1 [Compound C0014]	–	–	–	% DAMGO (0.1 μM) (Series C-1): 82.0%
COc1ccc(S(=O)(=O)N2CCC3(CC2)NCCO3)cc1 [Compound C0026]	207.2	21.2	288.4	–
COc1ccc(S(=O)(=O)N2CCOC23CCNCC3)cc1 [Compound C0027]	233.2	72.2	313.9	–
CCCCc1ccc(S(=O)(=O)N2CCC3(CC2)OCCN3S(=O)(=O)c2ccc(CCCC)cc2)cc1 [Compound C0030]	–	–	–	% DAMGO (0.1 μM) (Series C-1): 96.0%; % DAMGO (1 μM) (Series C-1, 1 μM compound relative to DAMGO (1 μM)): 98.0%
O=[N+]([O-])c1ccc(S(=O)(=O)N2CCC3(CC2)NCCO3)cc1 [Compound C0040]	145.8	90.4	308.3	–
COc1ccc(S(=O)(=O)N2CCOC23CCN(C(=O)OC(C)(C)C)CC3)cc1 [Compound C0043]	175.4	83.3	242.6	–
O=[N+]([O-])c1ccc(S(=O)(=O)N2CCC3(CC2)NCCS3)cc1 [Compound C0044]	173.7	59.1	280.1	–
O=[N+]([O-])c1ccc(S(=O)(=O)N2CCC3(CC2)NCCCO3)cc1 [Compound C0045]	149.2	105.3	238.8	–
CC(=O)c1ccc(S(=O)(=O)N2CCOC23CCNCC3)cc1 [Compound C0046]	286.2	156.8	492.9	–
